Data from article PMC8305076, “Comprehensive Evaluation of Biological Effects of Pentathiepins on Various Human Cancer Cell Lines and Insights into Their Mode of Action” (International Journal of Molecular Sciences, 2021).

Assays:
GR/CAT = GR/CAT inhibition (summary of off-target assays); format: biochemical; parameters: key: no impact (0); weak impact (+); strong impact (++); conditions: summary grade
Procedure: To assess the specificity of inhibitors toward the GPx1, we performed enzymatic assays with other relevant antioxidant enzymes. These included the glutathione reductase (GR; yeast-derived), which is an auxiliary component of the GPx1 assay, and catalase (CAT; bovine), a key redox enzyme that fulfils a similar enzymatic task as the GPx1 by detoxifying hydrogen peroxide. None of the pentathiepins altered the activity of either enzyme at a concentration of 25 µM (Figure 5b,c).
Off-target assays were conducted to assess the specificity of the pentathiepins for inhibiting the GPx1; these were the activities of GR and CAT (from bovine liver) that have previously been described. As the baker’s yeast GR is an important component in the GPx assay, its inhibition by pentathiepins had to be excluded. A fixed pentathiepin concentration of 25 µM was tested in triplicate, following the same principle as mentioned before, by monitoring the consumption of NADPH by the GR at λ = 340 nm while GSSG is reduced back to GSH. All assay components were prepared in potassium phosphate buffer (50 mM, pH 7.4, 1.1 mM EDTA, 0.01% Triton-X solution), except for the inhibitor that was diluted in DMF. Subsequently, 180 µL of buffer was added per well followed by 30 µL of a 2.0 U/mL GR solution, 30 µL of a 2.0 mM NADPH solution, and 30 µL of a 250 µM pentathiepin solution or 30 µL of DMF as negative control. Finally, to start the reaction, 30 µL of a 2.5 mM GSSG solution was added, resulting in final concentrations of 0.2 U/mL of GR, 0.2 mM of NADPH, 25 µM of pentathiepin, and 0.25 mM of GSSG. After measuring the decrease of NADPH every 15 s for 30 min at room temperature, the relative inhibition of the GR was calculated by relating the activity of the pentathiepin-treated samples to the negative control.
The CAT activity assay is based on the principle that in the presence of H2O2 and heat, and dichromate in acetic acid is reduced to chromic acetate via perchromic acid as unstable intermediate. Here, the amount of chromic acetate is measured twice, once directly after adding H2O2 (t0min) and once again after the CAT (bovine origin) split the H2O2 for a period of 10 min (t10min) in the presence or absence of a putative inhibitor. Samples in this assay included a blank (+CAT/+DMF/−H2O2), a H2O2 standard (−CAT/+DMF/+H2O2), a negative control (+CAT/+DMF/+H2O2), and the test conditions (+CAT/+25 µM pentathiepin/+H2O2). For each condition, 3.0 mL of 0.002 mg/mL CAT in potassium phosphate buffer (50 mM, pH 7.4, EDTA 1.1 mM, Triton-X 0.01%) were prepared in a glass tube. Additionally, two tubes were prepared per condition each containing 2 mL of a reagent containing 1 part of an aqueous solution of K2Cr2O7 (5%) and 2 parts glacial acetic acid. Subsequently, the solvent or inhibitors were added, and the tubes placed on a shaker for 5 min. To start the reaction, 61.8 µL of a 30% H2O2 solution was added and then mixed, and immediately 1 mL was transferred to one tube containing the K2Cr2O7/acetic acid solution (t0min). The remaining 2 mL was incubated on a shaker for 10 min, and then the previous step was repeated (t10min). Finally, all tubes were boiled in a water bath and cooled down to room temperature, and then absorbance was measured at λ = 570 nm and the instrument was blanked with the blank solution. The difference in absorbance between t0min and t10min was calculated, and all samples were related to the negative control.

seven cancer cell lines = test: DCFDA flow cytometric ROS assay, acute; format: cell-based, human; parameters: key: no impact (0); weak impact (+); strong impact (++); conditions: summary grade
Procedure: According to the hypothesized mechanism of action (see Figure 3), pentathiepins can create oxidative stress via generation of reactive sulfur precursors. We have previously reported that a representative pentathiepin can increase the intracellular levels of ROS in two cancer cell lines. This effect was thus further evaluated with the new compounds in seven cell lines (Figure 8). The cells were incubated for 15 min with 25.0 µM pentathiepin and subsequently analyzed by using the intracellular ROS sensor 2′,7′-dichlorodihydrofluorescein diacetate (DCFDA) by flow cytometry.
In order to quantify intracellular ROS, we performed a flow cytometric assay based on the ROS-sensor 2′,7′-dichlorofluorescein diacetate (DCFDA). For acute effects of pentathiepins on intracellular ROS levels, the cells were stained with DCFDA first and subsequently incubated with 25 µM of compound for 10 min. […] Per condition, 250,000 cells were seeded in 2 mL of medium per well of a 6-well plate and allowed to adhere overnight. For measurement of acute ROS, the cells were stained with 1 mL of a 20 µM DCFDA-PBS solution for 30 min under standard incubation conditions. Afterwards, the solution was discarded, and the monolayer washed twice with 1 mL of PBS before 3 mL of medium containing 25 µM of pentathiepin was added for 10 min at 37 °C. After removing the solution and washing again with PBS, the cells were detached by using 0.5 mL of a diluted trypsin/EDTA-PBS solution (25%) and harvested with 1 mL of culture medium by carefully rinsing the wells. The cell suspension was transferred to 1.5 mL tubes, centrifuged for 5 min at 500× g, and washed with 1 mL of PBS. After removing the supernatant, each pellet was resuspended in 0.5 mL of PBS for measurement via the MACSquant Analyzer 10 at λEx/Em = 488/530 nm. Relative ROS levels resulting from treatment with pentathiepin were calculated by relating the fluorescence intensity of treated samples to the negative control. For the experiments covering periods of 24 and 48 h, the cells were incubated with the compounds first and stained with DCFDA afterwards. To assess the influence of additional GSH, we included 3 or 30 µM GSH to the medium containing 25 µM of pentathiepin, and the protocol was followed as described.

SMILES | GR/CAT inhibition (GR/CAT) | ROS induction (seven cancer cell lines)
CCOc1c2c(c3cnc4[nH]c(-c5ccc(OC)cc5)cc4n13)SSSSS2 [Compound 1, 11-Ethoxy-2-(4-methoxyphenyl)-3H-[1,2,3,4,5]pentathiepino[6′,7′:3,4]pyrrolo[1,2-a]pyrrolo[2,3-e]pyrazine] | 0 | 0
CCOc1c2c(c3ccc(C(=O)N4CCCCC4)cn13)SSSSS2 [Compound 2, (6-Ethoxy-[1,2,3,4,5]pentathiepino[6,7-a]indolizin-9-yl)(piperidinyl)methanone] | 0 | ++
CCOc1c2c(c3ccc(C(=O)N4CCOCC4)cn13)SSSSS2 [Compound 3, (6-Ethoxy-[1,2,3,4,5]pentathiepino[6,7-a]indolizin-9-yl)(morpholino)methanone] | 0 | ++
CCOc1c2c(c3ccc(C(=O)N(CC)CC)cn13)SSSSS2 [Compound 4, 6-Ethoxy-N,N’-diethyl-[1,2,3,4,5]pentathiepino[6,7-a]indolizine-9-carboxamide] | 0 | ++
CCOc1c2c(c3ccc(C(=O)N4CCN(C(=O)c5ccc(F)cc5)CC4)cn13)SSSSS2 [Compound 5, (6-Ethoxy-[1,2,3,4,5]pentathiepino[6,7-a]indolizin-9-yl)(4-(4-fluorobenzoyl)piperazinyl)methanone] | 0 | ++
CCOc1c2c(c3ccc(C(=O)N4CCN(S(=O)(=O)c5ccc(C)cc5)CC4)cn13)SSSSS2 [Compound 6, (6-Ethoxy-[1,2,3,4,5]pentathiepino[6,7-a]indolizin-9-yl)(4-tosylpiperazinyl)methanone] | 0 | +
